From patent US5354862A, “Preparation and the use of halopropargylated cyclic quaternary ammonium compounds as antimicrobial agents” (Rohm and Haas Company, priority 1993, dated 1994) come the findings set out here.

Each structure is given as a SMILES string. Like-named read-outs stand apart in the source and are kept apart here.

Common to all, as to assay: Broth two-fold serial dilution MIC test
The test system of one test is Escherichia coli. It counts as cell-based, Escherichia coli (ATCC 11229). The following applies: Ecol. Summed up:
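Broth two-fold serial dilutions ran from 500 down to 0.25 ppm, prepared from a stock in acetone/methanol/water (5:3:2). Each tube received a standardized bacterial suspension and was incubated at a temperature suited to the species. MIC is the lowest concentration giving complete growth inhibition.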

The test system of another test is Pseudomonas aeruginosa. It counts as cell-based, Pseudomonas aeruginosa (ATCC 15442). The settings on record: Psae. The procedure, abridged: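 Broth two-fold serial dilution MIC (500 to 0.25 ppm) was run against Pseudomonas aeruginosa, with compound from 1% stock in acetone/methanol/water 5:3:2. Vessels inoculated with standardized broth-grown cells were incubated, then scored for growth. MIC is the lowest concentration giving complete growth inhibition.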

A further test concerns Staphylococcus aureus. The class given is cell-based, Staphylococcus aureus (ATCC 6538). The settings on record: Saur. Summed up:
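Broth two-fold serial dilution from 500 ppm down to 0.25 ppm, compound delivered from acetone/methanol/water stock, inoculated with standardized cell suspension and incubated at an organism-appropriate temperature. MIC is the lowest concentration giving complete growth inhibition.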

In the next test the test system is Aspergillus niger. The class given is cell-based, Aspergillus niger (ATCC 6275). The settings on record: Anig, TSB media. Summed up:
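Two-fold broth serial dilution from 500 ppm down to 0.25 ppm, compound stock in acetone/methanol/water 5:3:2. Vessels inoculated with standardized spore suspension harvested from agar slants, incubated at a species-appropriate temperature, then scored for growth/no growth. MIC is the lowest concentration giving complete growth inhibition.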

Where [1] appears, read: Escherichia coli, Table 2, M9G media, read-out: MIC.
Where [2] appears, read: Escherichia coli, Table 2, TSB media, read-out: MIC.
[3] abbreviates: Pseudomonas aeruginosa, Table 2, M9G media, read-out: MIC.
[4] abbreviates: Pseudomonas aeruginosa, Table 2, TSB media, read-out: MIC.
The mark [5] stands for this setting: Staphylococcus aureus, Table 2, M9G media, read-out: MIC.
[6] abbreviates: Staphylococcus aureus, Table 2, TSB media, read-out: MIC.
Setting [7] is: Aspergillus niger, Table 2, read-out: MIC.

As to `CCCCCCCC[N+]1(CC#CI)CCCC1` [Compound 12, 1-octyl-1-(3-iodopropargyl)-pyrrolidinium 4-methylbenzenesulfonate], the MIC was 32 µg/mL in the test on Escherichia coli (setting [1]); 63 µg/mL with Escherichia coli (setting [2]); 500 µg/mL in the test with Pseudomonas aeruginosa (setting [3]); over 500 µg/mL in the test on Pseudomonas aeruginosa (setting [4]); 2 µg/mL in the test on Staphylococcus aureus (setting [5]); 16 µg/mL in the test with Staphylococcus aureus (setting [6]). In the test with Aspergillus niger (setting [7]), the MIC amounted to 16 µg/mL.

Take `CCCCCCCCCCCCCC[N+]1(CC#CI)CCC(C)CC1` (centres unmarked) [Compound 52, 1-(tetradecyl)-1-(3-iodopropargyl)-4-methylpiperidinium benzenesulfonate]: the MIC in the test with Escherichia coli (setting [1]) is 8 µg/mL; in the test with Escherichia coli (setting [2]), 2 µg/mL; in the test on Pseudomonas aeruginosa (setting [3]), 16 µg/mL; with Pseudomonas aeruginosa (setting [4]) it was 16 µg/mL; in the test with Staphylococcus aureus (setting [5]) it was under 0.25 µg/mL; in the test on Staphylococcus aureus (setting [6]), under 0.25 µg/mL. In addition, in the test on Aspergillus niger (setting [7]), the MIC was under 0.25 µg/mL.

For `CCCCCCCCCCOC(=O)C[N+]1(CC#CI)CCCC1` [Compound 70, 1-(decyloxycarbonyl)methyl-1-(3-iodopropargyt)-pyrrolidinium benzenesulfonate], the MIC is given as 2 ppm in the test on Escherichia coli (Table 2, M9G media); 8 ppm in the test on Escherichia coli (Table 2, TSB media); 125 ppm in the test on Pseudomonas aeruginosa (Table 2, M9G media); 250 ppm against Pseudomonas aeruginosa (Table 2, TSB media); 1 ppm with Staphylococcus aureus (Table 2, M9G media); 2 ppm in the test on Staphylococcus aureus (Table 2, TSB media). For the same molecule, in the test on Aspergillus niger (Table 2), the MIC is reported as 32 ppm.

For `CCCCCCCCCCCCCC[N+]1(CC#CI)CCCC1` [Compound 34, 1-tetradecyl-1-(3-iodopropargyl)-pyrrolidinium benzenesulfonate], the MIC with Escherichia coli (Table 2, M9G media) stood at 0.25 ppm; in the test on Escherichia coli (Table 2, TSB media), 0.25 ppm; against Escherichia coli (Table 3 comparison, M9G media), 0.25 ppm; in the test on Escherichia coli (Table 3 comparison, TSB media), 0.25 ppm; with Pseudomonas aeruginosa (Table 2, M9G media), 2 ppm; in the test with Pseudomonas aeruginosa (Table 2, TSB media), 2 ppm. In addition, the MIC against Pseudomonas aeruginosa (Table 3 comparison, M9G media) is recorded as 2 ppm; with Pseudomonas aeruginosa (Table 3 comparison, TSB media), 2 ppm; with Staphylococcus aureus (Table 2, M9G media), under 0.25 ppm; in the test with Staphylococcus aureus (Table 2, TSB media), under 0.25 ppm; in the test on Staphylococcus aureus (Table 3 comparison, M9G media), under 0.25 ppm; against Staphylococcus aureus (Table 3 comparison, TSB media) it was under 0.25 ppm. Moreover, the MIC in the test on Aspergillus niger (Table 2) and against Aspergillus niger (Table 3 comparison) was 0.25 ppm throughout.

With `CCCCCCCCCC[N+]1(CC#CI)CCCC1` [Compound 11], the MIC was found to be 16 ppm against Escherichia coli (Table 2, M9G media); 32 ppm in the test on Escherichia coli (Table 2, TSB media); 250 µg/mL in the test on Pseudomonas aeruginosa (setting [3]); 500 µg/mL with Pseudomonas aeruginosa (setting [4]); 2 ppm in the test on Staphylococcus aureus (Table 2, M9G media); 16 ppm with Staphylococcus aureus (Table 2, TSB media). In the test with Aspergillus niger (setting [7]), the MIC amounted to 4 µg/mL.

As to `CCCCCCCCCCCCCC[N+]1(CC#CI)CCNC1.O=S(=O)([O-])c1ccccc1` (centres unmarked) [Compound 58, 3-(tetradecyt)-3-(3-iodopropargyl)-imidazolidinium benzenesulfonate], the MIC in the test on Escherichia coli (Table 2, M9G media) is 4 ppm; in the test with Escherichia coli (Table 2, TSB media), 8 ppm; in the test with Pseudomonas aeruginosa (Table 2, M9G media), 125 ppm; with Pseudomonas aeruginosa (Table 2, TSB media), over 500 ppm; with Staphylococcus aureus (Table 2, M9G media) it was 0.5 ppm; against Staphylococcus aureus (Table 2, TSB media), 4 ppm. In the test with Aspergillus niger (Table 2), this molecule showed an MIC of 8 ppm.

For the molecule `CCCCCCOC(=O)CCCCC[N+]1(CC#CI)CCOCC1` [Compound 81], the MIC in the test on Escherichia coli (setting [2]) is 64 µg/mL; against Escherichia coli (Table 2, M9G media), 64 ppm; in the test with Pseudomonas aeruginosa (setting [3]), over 500 µg/mL; with Pseudomonas aeruginosa (setting [4]), over 500 µg/mL; in the test on Staphylococcus aureus (setting [5]) it was 4 µg/mL; in the test on Staphylococcus aureus (setting [6]), 16 µg/mL. Moreover, the MIC in the test on Aspergillus niger (setting [7]) worked out at 125 µg/mL.

For the molecule `CCCCCCOC(=O)CCCCC[N+]1(CC#CI)CCCC1` [Compound 84, 1-[5-(hexyloxycarbonyl)]pentyl-1-(3-iodopropargyl)-pyrrolidinium methanesulfonate], the MIC is 16 ppm in the test with Escherichia coli (Table 2, M9G media); 32 ppm in the test with Escherichia coli (Table 2, TSB media); over 500 ppm in the test with Pseudomonas aeruginosa (Table 2, M9G media); over 500 ppm with Pseudomonas aeruginosa (Table 2, TSB media); 2 ppm in the test with Staphylococcus aureus (Table 2, M9G media); 8 ppm in the test with Staphylococcus aureus (Table 2, TSB media). The molecule further registered an MIC in the test with Aspergillus niger (Table 2) of 32 ppm.

As for `CCCCCCCCCCCCC[N+]1(CC#CI)CCOCC1` [Compound 89, 4-tridecyl-4-(3-iodopropargyl)-morpholinium methanesulfonate], the MIC in the test with Escherichia coli (setting [1]) was 2 µg/mL; in the test with Escherichia coli (setting [2]), 8 µg/mL; in the test on Pseudomonas aeruginosa (setting [3]) it was 16 µg/mL; with Pseudomonas aeruginosa (setting [4]) it was 64 µg/mL; in the test with Staphylococcus aureus (setting [5]), 1 µg/mL; with Staphylococcus aureus (setting [6]), 2 µg/mL. Moreover, the MIC in the test with Aspergillus niger (setting [7]) was 8 µg/mL.

For `CCCCCCCCCCCC[N+]1(CC#CI)CCCC1` [Compound 13, 1-dodecyl-1-(3-iodopropargyl)-pyrrolidinium 4-methylbenzenesulfonate], the MIC in the test on Escherichia coli (Table 2, M9G media) was 32 ppm; in the test on Escherichia coli (Table 2, TSB media), 32 ppm; in the test on Pseudomonas aeruginosa (setting [3]), 32 µg/mL; in the test on Pseudomonas aeruginosa (Table 2, TSB media), 250 ppm; in the test on Staphylococcus aureus (Table 2, M9G media), 1 ppm; against Staphylococcus aureus (Table 2, TSB media), 16 ppm. Further, the MIC against Aspergillus niger (Table 2) was found to be 16 ppm.

`CCCCCCCCCCCCOC(=O)C[N+]1(CC#CI)CCCC1` [Compound 63, 1-(dodecyloxycarbonyl)methyl-1-(3-iodopropargyl)-pyrrolidinium 4-methylbenzenesulfonate]: the MIC came to 2 µg/mL in the test on Escherichia coli (setting [1]); 4 µg/mL in the test with Escherichia coli (setting [2]); 64 µg/mL with Pseudomonas aeruginosa (setting [3]); 125 ppm with Pseudomonas aeruginosa (Table 2, TSB media); 2 ppm in the test on Staphylococcus aureus (Table 2, M9G media); 4 ppm with Staphylococcus aureus (Table 2, TSB media). Further, the MIC in the test on Aspergillus niger (Table 2) is 2 ppm.

With `CCCCCCCCCCCCC[N+]1(CC#CI)CCCC1` [Compound 36, 1-tridecyl-1-(3-iodopropargyl)-pyrrolidinium methanesulfonate], the MIC with Escherichia coli (Table 2, M9G media) was 2 ppm; against Escherichia coli (Table 2, TSB media), 8 ppm; in the test on Pseudomonas aeruginosa (Table 2, M9G media), 32 ppm; with Pseudomonas aeruginosa (Table 2, TSB media) it was 63 ppm; with Staphylococcus aureus (Table 2, M9G media) it was under 0.25 ppm; against Staphylococcus aureus (Table 2, TSB media), under 0.25 ppm. This molecule also returned an MIC in the test with Aspergillus niger (Table 2) of 1 ppm.

In the case of `CCCCCCCCCCOC(=O)CC[N+]1(CC#CI)CCOCC1` [Compound 96], the MIC in the test on Escherichia coli (Table 2, M9G media) was 8 ppm; in the test with Escherichia coli (Table 2, TSB media), 64 ppm; in the test on Pseudomonas aeruginosa (Table 2, M9G media) it was 500 ppm; in the test on Pseudomonas aeruginosa (Table 2, TSB media), over 500 ppm; in the test on Staphylococcus aureus (Table 2, M9G media), 32 ppm; in the test with Staphylococcus aureus (Table 2, TSB media), 64 ppm. In the test on Aspergillus niger (Table 2), this molecule had an MIC of 16 ppm.

Take `CCCCCC[N+]1(CC#CI)CCCC1` [Compound 14, 1-hexyl-1-(3-iodopropargyl)-pyrrolidinium 4-methylbenzenesulfonate]: the MIC amounted to 250 µg/mL in the test with Escherichia coli (setting [1]); 125 µg/mL in the test with Escherichia coli (setting [2]); 500 µg/mL with Pseudomonas aeruginosa (setting [3]); 500 µg/mL with Pseudomonas aeruginosa (setting [4]); 16 µg/mL in the test with Staphylococcus aureus (setting [5]); 16 µg/mL in the test on Staphylococcus aureus (setting [6]). Moreover, the MIC with Aspergillus niger (setting [7]) was 250 µg/mL.

In the case of `CCCCCCCCCCCCCCC[N+]1(CC#CI)CCCC1` [Compound 10, 1-pentadecyl-1-(3-iodopropargyl)-pyrrolidinium 4-methylbenzenesulfonate], the MIC is 4 ppm against Escherichia coli (Table 2, M9G media); 32 ppm in the test with Escherichia coli (Table 2, TSB media); 8 ppm in the test with Pseudomonas aeruginosa (Table 2, M9G media); 250 ppm with Pseudomonas aeruginosa (Table 2, TSB media); under 0.25 µg/mL in the test on Staphylococcus aureus (setting [5]); 1 ppm with Staphylococcus aureus (Table 2, TSB media). In the test with Aspergillus niger (setting [7]), the MIC is under 0.25 µg/mL.

Turning to `CCCCCCCCCCCCCC[N+]1(CC#CI)CCCC1` [Compound 87, 1.-tetradecyl-1-(3-iodopropargyl)-pyrrolidinium n-butylsulfonate], the MIC came out at 2 ppm against Escherichia coli (Table 2, M9G media); 4 ppm against Escherichia coli (Table 2, TSB media); 16 ppm against Pseudomonas aeruginosa (Table 2, M9G media); 64 ppm with Pseudomonas aeruginosa (Table 2, TSB media); 0.25 ppm in the test with Staphylococcus aureus (Table 2, M9G media); 0.25 ppm in the test with Staphylococcus aureus (Table 2, TSB media). Moreover, the MIC in the test on Aspergillus niger (Table 2) came to 4 ppm.

Take `CCCCCCCCCCCCCC[N+]1(CC#CI)CCOCC1` [Compound 71, 4-tetradecyl-4-(3-iodopropargyl)-morpholinium bromide]: the MIC in the test on Escherichia coli (Table 2, M9G media) is 1 ppm; in the test with Escherichia coli (Table 2, TSB media), 4 ppm; in the test with Pseudomonas aeruginosa (Table 2, M9G media), 8 ppm; against Pseudomonas aeruginosa (Table 2, TSB media), 32 ppm; in the test with Staphylococcus aureus (Table 2, M9G media), 0.25 ppm; against Staphylococcus aureus (Table 2, TSB media) it was 0.25 ppm. This molecule also came in with an MIC against Aspergillus niger (Table 2) of 4 ppm.

In the case of `CCCCCCCCCCC[N+]1(CC#CI)CCCC1` [Compound 15, 1-undecyl-1-(3-iodopropargyl)-pyrrolidinium 4-methylbenzenesulfonate], the MIC with Escherichia coli (setting [1]) turned out to be 1 µg/mL; with Escherichia coli (setting [2]), 2 µg/mL; with Pseudomonas aeruginosa (setting [3]), 32 µg/mL; with Pseudomonas aeruginosa (setting [4]), 32 µg/mL; in the test on Staphylococcus aureus (setting [5]), 0.25 µg/mL; with Staphylococcus aureus (setting [6]), 0.25 µg/mL. The MIC with Aspergillus niger (setting [7]) amounted to 16 µg/mL.

Consider `CCCCCCCCCCCCCCCC[N+]1(CC#CI)CCCCCC1` [Compound 44, 1-hexadecyl-1-(3-iodopropargyl)-hexamethyleneiminium 4-methylbenzenesulfonate], for which the MIC in the test with Escherichia coli (setting [1]) is 8 µg/mL; with Escherichia coli (setting [2]), 16 µg/mL; in the test with Pseudomonas aeruginosa (setting [3]), 8 µg/mL; in the test on Pseudomonas aeruginosa (setting [4]), 8 µg/mL; with Staphylococcus aureus (setting [5]) it was 8 µg/mL; in the test on Staphylococcus aureus (setting [6]) it was 4 µg/mL. Moreover, the MIC in the test with Aspergillus niger (setting [7]) worked out at 8 µg/mL.
